According to paper PMC8848307 (Journal of medicinal chemistry, 2019):

How the values were obtained:
[1] = molecular target: T1, STAT3 protein (Homo sapiens, UniProt P40763); experiment: Western blotting of STAT3 degradation in Molm-16 cells; assay type: cell-based
[2] = molecular target: T1, STAT3 protein; experiment: Western blotting of STAT3 degradation in SU-DHL-1 cells; assay type: cell-based; conditions: SU-DHL-1 cells, ratio of DC50

T1 sequence (P40763 whole entry): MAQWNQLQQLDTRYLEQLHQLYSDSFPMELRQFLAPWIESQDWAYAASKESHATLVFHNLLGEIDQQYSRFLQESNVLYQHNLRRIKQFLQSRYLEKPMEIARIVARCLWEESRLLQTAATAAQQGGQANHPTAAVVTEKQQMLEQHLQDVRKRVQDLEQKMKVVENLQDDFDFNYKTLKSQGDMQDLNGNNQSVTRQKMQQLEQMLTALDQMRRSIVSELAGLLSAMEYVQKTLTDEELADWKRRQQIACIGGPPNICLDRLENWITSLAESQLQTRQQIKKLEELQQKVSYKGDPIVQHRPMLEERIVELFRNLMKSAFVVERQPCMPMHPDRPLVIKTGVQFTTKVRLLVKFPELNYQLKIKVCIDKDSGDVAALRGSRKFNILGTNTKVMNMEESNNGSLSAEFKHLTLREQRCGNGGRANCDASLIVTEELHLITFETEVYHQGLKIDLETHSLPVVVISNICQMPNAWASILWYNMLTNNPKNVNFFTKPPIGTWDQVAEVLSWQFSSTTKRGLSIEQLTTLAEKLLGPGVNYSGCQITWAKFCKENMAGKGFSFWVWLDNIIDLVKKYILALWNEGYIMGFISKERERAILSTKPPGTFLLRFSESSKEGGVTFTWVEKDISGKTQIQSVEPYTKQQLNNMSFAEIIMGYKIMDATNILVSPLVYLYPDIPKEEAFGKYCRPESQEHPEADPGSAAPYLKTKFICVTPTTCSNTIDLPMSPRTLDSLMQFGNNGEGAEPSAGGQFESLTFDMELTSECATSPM

Structure (SMILES)	times less potent than SD-36 in STAT3 degradation ([1]; Molm-16 cells, ratio of DC50)	further results
NC(=O)CC[C@H](NC(=O)[C@@H]1CC[C@@H]2CCN(C(=O)CCCC#Cc3cccc4c3CN(C3CCC(=O)NC3=O)C4=O)C[C@H](NC(=O)c3cc4cc(C(F)(F)P(=O)(O)O)ccc4[nH]3)C(=O)N21)C(=O)NC(c1ccccc1)c1ccccc1 (stereo partly drawn) [Compound 12, ((2-(((5S,8S,10aR)-8-(((S)-5-Amino-1-(benzhydrylamino)-1,5-dioxopentan-2-yl)carbamoyl)-3-(6-(2-(2,6-dioxopiperidin-3-yl)-1-oxoisoindolin-4-yl)hex-5-ynoyl)-6-oxodecahydropyrrolo-[1,2-a][1,5]diazocin-5-yl)carbamoyl)-1H-indol-5-yl)-difluoromethyl)phosphonic Acid]		effect on the level of total STAT3 protein ([1]; Molm-16, 4 h, concentrations up to 1 μM): no effect; effect on the level of pSTAT3^Y705 protein ([1]; Molm-16, 4 h, up to / at 1 μM): only minimally
NC(=O)CC[C@H](NC(=O)[C@@H]1CC[C@@H]2CCN(C(=O)CCCCC#Cc3cccc4c3CN(C3CCC(=O)NC3=O)C4=O)C[C@H](NC(=O)c3cc4cc(C(F)(F)P(=O)(O)O)ccc4[nH]3)C(=O)N21)C(=O)NC(c1ccccc1)c1ccccc1 (stereo partly drawn) [Compound 13, ((2-(((5S,8S,10aR)-8-(((S)-5-Amino-1-(benzhydrylamino)-1,5-dioxopentan-2-yl)carbamoyl)-3-(7-(2-(2,6-dioxopiperidin-3-yl)-1-oxoisoindolin-4-yl)hept-6-ynoyl)-6-oxodecahydropyrrolo[1,2-a][1,5]diazocin-5-yl)carbamoyl)-1H-indol-5-yl)difluoromethyl)phosphonic Acid]		times more potent than 12 in STAT3 degradation ([1]; Molm-16 cells, ratio of DC50): 10 times
NC(=O)CC[C@H](NC(=O)[C@@H]1CC[C@@H]2CCN(C(=O)CCCCCCCCC#Cc3cccc4c3CN(C3CCC(=O)NC3=O)C4=O)C[C@H](NC(=O)c3cc4cc(C(F)(F)P(=O)(O)O)ccc4[nH]3)C(=O)N21)C(=O)NC(c1ccccc1)c1ccccc1 (stereo partly drawn) [Compound 16, ((2-(((5S,8S,10aR)-8-(((S)-5-Amino-1-(benzhydrylamino)-1,5-dioxopentan-2-yl)carbamoyl)-3-(11-(2-(2,6-dioxopiperidin-3-yl)-1-oxoisoindolin-4-yl)undec-10-ynoyl)-6-oxodecahydropyrrolo[1,2-a][1,5]diazocin-5-yl)carbamoyl)-1H-indol-5-yl)difluoromethyl)phosphonic Acid]	2–3 times	
NC(=O)CC[C@H](NC(=O)[C@@H]1CC[C@@H]2CCN(C(=O)OCCCCC#Cc3cccc4c3CN(C3CCC(=O)NC3=O)C4=O)C[C@H](NC(=O)c3cc4cc(C(F)(F)P(=O)(O)O)ccc4[nH]3)C(=O)N21)C(=O)NC(c1ccccc1)c1ccccc1 (stereo partly drawn) [Compound 18, ((2-(((5S,8S,10aR)-8-(((S)-5-Amino-1-(benzhydrylamino)-1,5-dioxopentan-2-yl)carbamoyl)-3-(((6-(2-(2,6-dioxopiperidin-3-yl)-1-oxoisoindolin-4-yl)hex-5-yn-1-yl)oxy)carbonyl)-6-oxodecahydropyrrolo[1,2-a][1,5]diazocin-5-yl)carbamoyl)-1H-indol-5-yl)difluoromethyl)phosphonic Acid]		times less potent than SD-36 in STAT3 degradation [2]: 2 times
NC(=O)CC[C@H](NC(=O)[C@@H]1CC[C@@H]2CCN(C(=O)c3cnn(CCCC#Cc4cccc5c4CN(C4CCC(=O)NC4=O)C5=O)c3)C[C@H](NC(=O)c3cc4cc(C(F)(F)P(=O)(O)O)ccc4[nH]3)C(=O)N21)C(=O)NC(c1ccccc1)c1ccccc1 (stereo partly drawn) [Compound 20, ((2-(((5S,8S,10aR)-8-(((S)-5-Amino-1-(benzhydrylamino)-1,5-dioxopentan-2-yl)carbamoyl)-3-(1-(5-(2-(2,6-dioxopiperidin-3-yl)-1-oxoisoindolin-4-yl)pent-4-yn-1-yl)-1H-pyrazole-4-carbonyl)-6-oxodecahydropyrrolo[1,2-a][1,5]diazocin-5-yl)-carbamoyl)-1H-indol-5-yl)difluoromethyl)phosphonic Acid]	3–4 times	
NC(=O)CC[C@H](NC(=O)[C@@H]1CC[C@@H]2CCN(C(=O)CCCn3cc(C#Cc4cccc5c4CN(C4CCC(=O)NC4=O)C5=O)cn3)C[C@H](NC(=O)c3cc4cc(C(F)(F)P(=O)(O)O)ccc4[nH]3)C(=O)N21)C(=O)NC(c1ccccc1)c1ccccc1 (stereo partly drawn) [Compound 21, ((2-(((5S,8S,10aR)-8-(((S)-5-Amino-1-(benzhydrylamino)-1,5-dioxopentan-2-yl)carbamoyl)-3-(4-(4-((2-(2,6-dioxopiperidin-3-yl)-1-oxoisoindolin-4-yl)ethynyl)-1H-pyrazol-1-yl)butanoyl)-6-oxodecahydropyrrolo[1,2-a][1,5]diazocin-5-yl)carbamoyl)-1H-indol-5-yl)difluoromethyl)phosphonic Acid]	3–4 times	
NC(=O)CC[C@H](NC(=O)[C@@H]1CC[C@@H]2CCN(C(=O)N3CCC(CCC#Cc4cccc5c4CN(C4CCC(=O)NC4=O)C5=O)CC3)C[C@H](NC(=O)c3cc4cc(C(F)(F)P(=O)(O)O)ccc4[nH]3)C(=O)N21)C(=O)NC(c1ccccc1)c1ccccc1 (stereo partly drawn) [Compound 22, ((2-(((5S,8S,10aR)-8-(((S)-5-Amino-1-(benzhydrylamino)-1,5-dioxopentan-2-yl)carbamoyl)-3-(4-(4-(2-(2,6-dioxopiperidin-3-yl)-1-oxoisoindolin-4-yl)but-3-yn-1-yl)piperidine-1-carbon-yl)-6-oxodecahydropyrrolo[1,2-a][1,5]diazocin-5-yl)-carbamoyl)-1H-indol-5-yl)difluoromethyl)phosphonic Acid]	3 times	
NC(=O)CC[C@H](NC(=O)[C@@H]1CC[C@@H]2CCN(C(=O)CCN3CCC(C#Cc4cccc5c4CN(C4CCC(=O)NC4=O)C5=O)CC3)C[C@H](NC(=O)c3cc4cc(C(F)(F)P(=O)(O)O)ccc4[nH]3)C(=O)N21)C(=O)NC(c1ccccc1)c1ccccc1 (stereo partly drawn) [Compound 23, ((2-(((5S,8S,10aR)-8-(((S)-5-Amino-1-(benzhydrylamino)-1,5-dioxopentan-2-yl)carbamoyl)-3-(3-(4-((2-(2,6-dioxopiperidin-3-yl)-1-oxoisoindolin-4-yl)ethynyl)piperidin-1-yl)propanoyl)-6-oxodecahydropyrrolo[1,2-a][1,5]diazocin-5-yl)carbamoyl)-1H-indol-5-yl)difluoromethyl)phosphonic Acid]	40 times	
NC(=O)CC[C@H](NC(=O)[C@@H]1CC[C@@H]2CCN(C(=O)CC(=O)N3CCC(C#Cc4cccc5c4CN(C4CCC(=O)NC4=O)C5=O)CC3)C[C@H](NC(=O)c3cc4cc(C(F)(F)P(=O)(O)O)ccc4[nH]3)C(=O)N21)C(=O)NC(c1ccccc1)c1ccccc1 (stereo partly drawn) [Compound 24, ((2-(((5S,8S,10aR)-8-(((S)-5-Amino-1-(benzhydrylamino)-1,5-dioxopentan-2-yl)carbamoyl)-3-(3-(4-((2-(2,6-dioxopiperidin-3-yl)-1-oxoisoindolin-4-yl)ethynyl)piperidin-1-yl)-3-oxopropanoyl)-6-oxodecahydropyrrolo[1,2-a][1,5]diazocin-5-yl)-carbamoyl)-1H-indol-5-yl)difluoromethyl)phosphonic Acid]	6 times	
NC(=O)CC[C@H](NC(=O)[C@@H]1CC[C@@H]2CCN(C(=O)CCCCCCCc3cccc4c3CN(C3CCC(=O)NC3=O)C4=O)C[C@H](NC(=O)c3cc4cc(C(F)(F)P(=O)(O)O)ccc4[nH]3)C(=O)N21)C(=O)NC(c1ccccc1)c1ccccc1 (stereo partly drawn) [Compound 25, ((2-(((5S,8S,10aR)-8-(((S)-5-Amino-1-(benzhydrylamino)-1,5-dioxopentan-2-yl)carbamoyl)-3-(8-(2-(2,6-dioxopiperidin-3-yl)-1-oxoisoindolin-4-yl)octanoyl)-6-oxodecahydropyrrolo-[1,2-a][1,5]diazocin-5-yl)-carbamoyl)-1H-indol-5-yl)-difluoromethyl)phosphonic Acid]	2–3 times	
NC(=O)CC[C@H](NC(=O)[C@@H]1CC[C@@H]2CCN(C(=O)CCCCCCNc3cccc4c3CN(C3CCC(=O)NC3=O)C4=O)C[C@H](NC(=O)c3cc4cc(C(F)(F)P(=O)(O)O)ccc4[nH]3)C(=O)N21)C(=O)NC(c1ccccc1)c1ccccc1 (stereo partly drawn) [Compound 26, ((2-(((5S,8S,10aR)-8-(((S)-5-Amino-1-(benzhydrylamino)-1,5-dioxopentan-2-yl)carbamoyl)-3-(7-((2-(2,6-dioxopiperidin-3-yl)-1-oxoisoindolin-4-yl)amino)heptanoyl)-6-oxodecahydropyrrolo[1,2-a][1,5]diazocin-5-yl)carbamoyl)-1H-indol-5-yl)difluoromethyl)phosphonic Acid]	2–3 times	
NC(=O)CC[C@H](NC(=O)[C@@H]1CC[C@@H]2CCN(C(=O)CCCCCC#Cc3ccc4c(c3)CN(C3CCC(=O)NC3=O)C4=O)C[C@H](NC(=O)c3cc4cc(C(F)(F)P(=O)(O)O)ccc4[nH]3)C(=O)N21)C(=O)NC(c1ccccc1)c1ccccc1 (stereo partly drawn) [Compound 28, ((2-(((5S,8S,10aR)-8-(((S)-5-Amino-1-(benzhydrylamino)-1,5-dioxopentan-2-yl)carbamoyl)-3-(8-(2-(2,6-dioxopiperidin-3-yl)-1-oxoisoindolin-5-yl)oct-7-ynoyl)-6-oxodecahydropyrrolo-[1,2-a][1,5]diazocin-5-yl)carbamoyl)-1H-indol-5-yl)difluoromethyl)phosphonic Acid]	5–10 times	
NC(=O)CC[C@H](NC(=O)[C@@H]1CC[C@@H]2CCN(C(=O)CCCCCC#Cc3ccc4c(c3)C(=O)N(C3CCC(=O)NC3=O)C4)C[C@H](NC(=O)c3cc4cc(C(F)(F)P(=O)(O)O)ccc4[nH]3)C(=O)N21)C(=O)NC(c1ccccc1)c1ccccc1 (stereo partly drawn) [Compound 29, ((2-(((5S,8S,10aR)-8-(((S)-5-Amino-1-(benzhydrylamino)-1,5-dioxopentan-2-yl)carbamoyl)-3-(8-(2-(2,6-dioxopiperidin-3-yl)-3-oxoisoindolin-5-yl)oct-7-ynoyl)-6-oxodecahydropyrrolo-[1,2-a][1,5]diazocin-5-yl)carbamoyl)-1H-indo 1–5-yl)difluoromethyl)phosphonic Acid]	5–10 times	
